Data published in US9656990B2, “Cathepsin cysteine protease inhibitors” (Merck Sharp & Dohme Corp., priority 2014, dated 2017).

Columns and labels:
human cathepsin K = human cathepsin K (UniProt P43236, Y175D/V274L, species not given); experiment: Cathepsin K Assay; type: biochemical; conditions: IP from dose response curve; Z-Leu-Arg-AMC substrate, pH 5.5; read-out: hrbCat K (IP (nM))
human cathepsin F = molecular target: T1, human cathepsin F (Homo sapiens, UniProt Q9UBX1); experiment: Cathepsin F Assay; type: biochemical; conditions: IP from dose response curve; Z-Phe-Arg-AMC substrate, pH 5.5; read-out: hCat F (IP (nM))
T1 sequence (Q9UBX1 271-484): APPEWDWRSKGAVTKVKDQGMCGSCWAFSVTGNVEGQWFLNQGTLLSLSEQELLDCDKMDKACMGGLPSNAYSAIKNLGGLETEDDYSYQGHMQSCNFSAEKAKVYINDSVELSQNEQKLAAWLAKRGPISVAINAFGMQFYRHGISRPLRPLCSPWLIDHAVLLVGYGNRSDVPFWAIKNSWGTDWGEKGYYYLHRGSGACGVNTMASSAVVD
Procedure, shortened: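 Human cathepsin F (10 nM) preincubated 15 min at room temperature with compounds in 50 mM MES pH 5.5, 2.5 mM EDTA, 2.5 mM DTT, 10% DMSO. Z-Phe-Arg-AMC (8 μM) added; AMC release read by fluorescence (Ex 360/Em 460 nm) over 20 min, inhibition fit to dose-response model.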

`CCN=S1(=O)CCN(c2ccc(-c3cn(-c4ccc(F)cc4)nc3[C@@H]3CCCC[C@H]3C(=O)NC3(C#N)CC3)cc2)CC1` [Example 138, (1R,2R)-N-(1-cyanocyclopropyl)-2-(4-(4-(1-(ethylimino)-1-oxidothiomorpholino)phenyl)-1-(4-fluorophenyl)-1H-pyrazol-3-yl)cyclohexanecarboxamide] was tested, and the IC50 (human cathepsin K) was 1.62 nM and the IC50 (human cathepsin F) was 725 nM.

Work on `Cc1c(-c2ccc(N3CCS(=O)(=O)CC3)cc2)c([C@@H]2CCCC[C@H]2C(=O)NC2(C#N)CC2)nn1-c1ccc(F)cc1` [Example 139, (1R,2R)-N-(1-cyanocyclopropyl)-2-(4-(4-(1,1-dioxidothiomorpholino)phen-yl)-1-(4-fluorophenyl)-5-methyl-1H-pyrazol-3-yl)cyclohexanecarboxamide] yielded an IC50 (human cathepsin K) of 7.48 nM and an IC50 (human cathepsin F) of 649 nM.

`CC(C)N=S1(=O)CCN(c2ccc(-c3cn(-c4ccc(F)cc4)nc3[C@@H]3CCCC[C@H]3C(=O)NC3(C#N)CC3)cc2)CC1` [Example 140, (1R,2R)-N-(1-cyanocyclopropyl)-2-(1-(4-fluorophenyl)-4-(4-(1-(isopropylimino)-1-oxidothiomorpholino)phenyl)-1H-pyrazol-3-yl)cyclohexanecarboxamide] was tested, and the IC50 (human cathepsin K) was 1.29 nM and the IC50 (human cathepsin F) was 782 nM.

With `N#CC1(NC(=O)[C@@H]2CCCC[C@H]2c2nn(-c3ccc(F)cc3)cc2-c2ccc(N3CCS(=O)(=NCC(F)(F)F)CC3)cc2)CC1` [Example 141, (1R,2R)-N-(1-cyanocyclopropyl)-2-(1-(4-fluorophenyl)-4-(4-(1-oxido-1-((2,2,2-trifluoroethyl)imino)thio-morpholino)phenyl)-1H-pyrazol-3-yl)cyclohexanecarboxamide] the IC50 (human cathepsin K) was 2.1 nM and the IC50 (human cathepsin F) was 816 nM.

In the case of `N#CC1(NC(=O)[C@@H]2CCCC[C@H]2c2nn(-c3ccccn3)cc2-c2ccc(N3CCS(=O)(=O)CC3)cc2)CC1` [Example 142, (1R,2R)-N-(1-cyanocyclopropyl)-2-(4-(4-(1,1-dioxidothiomorpholino)phen-yl)-1-(pyridin-2-yl)-1H-pyrazol-3-yl)cyclohexanecarboxamide], the IC50 (human cathepsin K) is reported as 0.52 nM and the IC50 (human cathepsin F) is reported as 232 nM.

With `N#CC1(NC(=O)[C@@H]2CCCC[C@H]2c2nn(-c3ccc(C(F)(F)F)cn3)cc2-c2ccc(N3CCS(=O)(=O)CC3)cc2)CC1` [Example 143, (1R,2R)-N-(1-cyanocyclopropyl)-2-(4-(4-(1,1-dioxidothiomorpholino)phen-yl)-1-(5-(trifluoromethyl)pyridin-2-yl)-1H-pyrazol-3-yl)cyclohexanecarboxamide] the IC50 (human cathepsin K) was 1.17 nM and the IC50 (human cathepsin F) was 395 nM.

For `N#CC1(NC(=O)[C@@H]2CCCC[C@H]2c2nn(-c3ncccc3F)cc2-c2ccc(N3CCS(=O)(=O)CC3)cc2)CC1` [Example 144, (1R,2R)-N-(1-cyanocyclopropyl)-2-(4-(4-(1,1-dioxidothiomorpholino)phen-yl)-1-(3-fluoropyridin-2-yl)-1H-pyrazol-3-yl)cyclohexanecarboxamide], the IC50 (human cathepsin K) was 5.59 nM and the IC50 (human cathepsin F) was 3060 nM.

For `N#CC1(NC(=O)[C@@H]2CCCC[C@H]2c2nn(-c3ccc(F)cn3)cc2-c2ccc(N3CCS(=O)(=O)CC3)cc2)CC1` [Example 145, (1R,2R)-N-(1-cyanocyclopropyl)-2-(4-(4-(1,1-dioxidothiomorpholino)phen-yl)-1-(5-fluoropyridin-2-yl)-1H-pyrazol-3-yl)cyclohexanecarboxamide], the IC50 (human cathepsin K) was 1.24 nM and the IC50 (human cathepsin F) was 481 nM.

With `N#CC1(NC(=O)[C@@H]2CCCC[C@H]2c2nn(-c3ccc(Cl)cn3)cc2-c2ccc(N3CCS(=O)(=O)CC3)cc2)CC1` [Example 146, (1R,2R)-2-(1-(5-chloropyridin-2-yl)-4-(4-(1,1-dioxidothiomorpholino)phen-yl)-1H-pyrazol-3-yl)-N-(1-cyanocyclopropyl)cyclohex-anecarboxamide] the IC50 (human cathepsin K) was 1.15 nM and the IC50 (human cathepsin F) was 272 nM.

Molecule `N#CC1(NC(=O)[C@@H]2CCCC[C@H]2c2nn(-c3ncc(F)cc3Cl)cc2-c2ccc(N3CCS(=O)(=O)CC3)cc2)CC1` [Example 147, (1R,2R)-2-(1-(3-chloro-5-fluoropyridin-2-yl)-4-(4-(1,1-dioxidothiomorpholino)phen-yl)-1H-pyrazol-3-yl)-N-(1-cyanocyclopropyl)cyclohex-anecarboxamide] has an IC50 (human cathepsin K) of 3.26 nM and an IC50 (human cathepsin F) of 1190 nM.

With `N#CC1(NC(=O)[C@@H]2CCCC[C@H]2c2nn(-c3ncc(F)cc3F)cc2-c2ccc(N3CCS(=O)(=O)CC3)cc2)CC1` [Example 148, (1R,2R)-N-(1-cyanocyclopropyl)-2-(1-(3,5-difluoropyridin-2-yl)-4-(4-(1,1-dioxidothiomorpholino)phen-yl)-1H-pyrazol-3-yl)cyclohexanecarboxamide] the IC50 (human cathepsin K) was 1.01 nM and the IC50 (human cathepsin F) was 502 nM.

With `CN=S1(=O)CCN(c2ccc(-c3cn(-c4ccc(F)cn4)nc3[C@@H]3CCCC[C@H]3C(=O)NC3(C#N)CC3)cc2)CC1` [Example 156, (1R,2R)-N-(1-cyanocyclopropyl)-2-(1-(5-fluoropyridin-2-yl)-4-(4-(1-(methylimino)-1-oxidothiomorpholino)phenyl)-1H-pyrazol-3-yl)cyclohexanecarboxamide] the IC50 (human cathepsin K) was 1.47 nM and the IC50 (human cathepsin F) was 945 nM.

Molecule `Cc1c(-c2ccc(N3CCS(=O)(=O)CC3)cc2)c([C@@H]2CCCC[C@H]2C(=O)NC2(C#N)CC2)nn1-c1ccc(F)cn1` [Example 157, (1R,2R)-N-(1-cyanocyclopropyl)-2-(4-(4-(1,1-dioxidothiomorpholino)phen-yl)-1-(5-fluoropyridin-2-yl)-5-methyl-1H-pyrazol-3-yl)cyclohexanecarboxamide] has an IC50 (human cathepsin K) of 4.26 nM and an IC50 (human cathepsin F) of 2980 nM.

With `CN=S1(=O)CCN(c2ccc(-c3cn(-c4ccc(F)cn4)nc3[C@@H]3CC[C@H](F)C[C@H]3C(=O)NC3(C#N)CC3)cc2)CC1` [Example 159, (1R,2R,5S)-N-(1-cyanocyclopropyl)-5-fluoro-2-(1-(5-fluoropyridin-2-yl)-4-(4-(1-(methylimino)-1-oxidothiomorpholino)phenyl)-1H-pyrazol-3-yl)cyclohexanecarboxamide] the IC50 (human cathepsin K) was 3.22 nM and the IC50 (human cathepsin F) was 1410 nM.

`N#CC1(NC(=O)[C@@H]2CCCC[C@H]2c2nn(-c3cccnn3)cc2-c2ccc(N3CCS(=O)(=O)CC3)cc2)CC1` [Example 161, (1R,2R)-N-(1-cyanocyclopropyl)-2-(4-(4-(1,1-dioxidothiomorpholino)phen-yl)-1-(pyridazin-3-yl)-1H-pyrazol-3-yl)cyclohexanecarboxamide] was tested, and the IC50 (human cathepsin K) was 1.61 nM and the IC50 (human cathepsin F) was 751 nM.

`COc1ccc(-n2cc(-c3ccc(N4CCS(=O)(=O)CC4)cc3)c([C@@H]3CCCC[C@H]3C(=O)NC3(C#N)CC3)n2)nn1` [Example 162, (1R,2R)-N-(1-cyanocyclopropyl)-2-(4-(4-(1,1-dioxidothiomorpholino)phen-yl)-1-(6-methoxypyridazin-3-yl)-1H-pyrazol-3-yl)cyclohexanecarboxamide] gave an IC50 (human cathepsin K) of 0.84 nM and an IC50 (human cathepsin F) of 654 nM.

Work on `N#CC1(NC(=O)[C@@H]2CCCC[C@H]2c2nn(-c3ccncc3)cc2-c2ccc(N3CCS(=O)(=O)CC3)cc2)CC1` [Example 163, (1R,2R)-N-(1-cyanocyclopropyl)-2-(4-(4-(1,1-dioxidothiomorpholino)phen-yl)-1-(pyridin-4-yl)-1H-pyrazol-3-yl)cyclohexanecarboxamide] yielded an IC50 (human cathepsin K) of 0.32 nM and an IC50 (human cathepsin F) of 237 nM.

With `N#CC1(NC(=O)[C@@H]2CCCC[C@H]2c2nn(-c3cccnc3)cc2-c2ccc(N3CCS(=O)(=O)CC3)cc2)CC1` [Example 164, (1R,2R)-N-(1-cyanocyclopropyl)-2-(4-(4-(1,1-dioxidothiomorpholino)phen-yl)-1-(pyridin-3-yl)-1H-pyrazol-3-yl)cyclohexanecarboxamide] the IC50 (human cathepsin K) was 0.48 nM and the IC50 (human cathepsin F) was 697 nM.

`N#CC1(NC(=O)[C@@H]2CCCC[C@H]2c2nn(-c3cncc(F)c3)cc2-c2ccc(N3CCS(=O)(=O)CC3)cc2)CC1` [Example 165, (1R,2R)-N-(1-cyanocyclopropyl)-2-(4-(4-(1,1-dioxidothiomorpholino)phen-yl)-1-(5-fluoropyridin-3-yl)-1H-pyrazol-3-yl)cyclohexanecarboxamide] was tested, and the IC50 (human cathepsin K) was 0.9 nM and the IC50 (human cathepsin F) was 319 nM.

For `N#CC1(NC(=O)[C@@H]2CCCC[C@H]2c2nn(-c3ccc(C(F)(F)F)nc3)cc2-c2ccc(N3CCS(=O)(=O)CC3)cc2)CC1` [Example 166, (1R,2R)-N-(1-cyanocyclopropyl)-2-(4-(4-(1,1-dioxidothiomorpholino)phen-yl)-1-(6-(trifluoromethyl)pyridin-3-yl)-1H-pyrazol-3-yl)cyclohexanecarboxamide], the IC50 (human cathepsin K) was 1.31 nM and the IC50 (human cathepsin F) was 428 nM.

`Cc1ccc(-n2cc(-c3ccc(N4CCS(=O)(=O)CC4)cc3)c([C@@H]3CCCC[C@H]3C(=O)NC3(C#N)CC3)n2)cn1` [Example 167, (1R,2R)-N-(1-cyanocyclopropyl)-2-(4-(4-(1,1-dioxidothiomorpholino)phen-yl)-1-(6-methylpyridin-3-yl)-1H-pyrazol-3-yl)cyclohexanecarboxamide] was tested, and the IC50 (human cathepsin K) was 0.66 nM and the IC50 (human cathepsin F) was 602 nM.

`COc1ccc(-n2cc(-c3ccc(N4CCS(=O)(=O)CC4)cc3)c([C@@H]3CCCC[C@H]3C(=O)NC3(C#N)CC3)n2)cn1` [Example 168, (1R,2R)-N-(1-cyanocyclopropyl)-2-(4-(4-(1,1-dioxidothiomorpholino)phen-yl)-1-(6-methoxypyridin-3-yl)-1H-pyrazol-3-yl)cyclohexanecarboxamide] was tested, and the IC50 (human cathepsin K) was 2.4 nM and the IC50 (human cathepsin F) was 763 nM.

`N#CC1(NC(=O)[C@@H]2CCCC[C@H]2c2nn(-c3cc(F)cnc3F)cc2-c2ccc(N3CCS(=O)(=O)CC3)cc2)CC1` [Example 169, (1R,2R)-N-(1-cyanocyclopropyl)-2-(1-(2,5-difluoropyridin-3-yl)-4-(4-(1,1-dioxidothiomorpholino)phen-yl)-1H-pyrazol-3-yl)cyclohexanecarboxamide] gave an IC50 (human cathepsin K) of 3.94 nM and an IC50 (human cathepsin F) of 5670 nM.
